Data: patent US20190233442A1, “SELECTIVE ESTROGEN RECEPTOR DOWN-REGULATORS (SERDS)” (Xavier University of Louisiana, priority 2016, published 2019)

Columns and labels:
T47D/PKCα = experiment: Cytotoxicity in breast cancer cell lines (T47D/PKCα); assay type: cell-based; settings: T47D/PKCα cells
BT474 = experiment: Cytotoxicity in breast cancer cell lines (BT474); assay type: cell-based; settings: BT474 cells
MCF-7 = experiment: Cytotoxicity in breast cancer cell lines (MCF-7); assay type: cell-based; settings: MCF-7 cells
MCF-7/TamR = experiment: Cytotoxicity in breast cancer cell lines (MCF-7/TamR); assay type: cell-based; settings: MCF-7/TamR cells
[1] = target: T1, estrogen receptor α (ERα) (Homo sapiens, UniProt P03372); experiment: Western blot of ER protein expression (down-regulation); assay type: cell-based
T1 construct: endogenous in cells; host or cells: MCF-7
T1 sequence (P03372 1-595): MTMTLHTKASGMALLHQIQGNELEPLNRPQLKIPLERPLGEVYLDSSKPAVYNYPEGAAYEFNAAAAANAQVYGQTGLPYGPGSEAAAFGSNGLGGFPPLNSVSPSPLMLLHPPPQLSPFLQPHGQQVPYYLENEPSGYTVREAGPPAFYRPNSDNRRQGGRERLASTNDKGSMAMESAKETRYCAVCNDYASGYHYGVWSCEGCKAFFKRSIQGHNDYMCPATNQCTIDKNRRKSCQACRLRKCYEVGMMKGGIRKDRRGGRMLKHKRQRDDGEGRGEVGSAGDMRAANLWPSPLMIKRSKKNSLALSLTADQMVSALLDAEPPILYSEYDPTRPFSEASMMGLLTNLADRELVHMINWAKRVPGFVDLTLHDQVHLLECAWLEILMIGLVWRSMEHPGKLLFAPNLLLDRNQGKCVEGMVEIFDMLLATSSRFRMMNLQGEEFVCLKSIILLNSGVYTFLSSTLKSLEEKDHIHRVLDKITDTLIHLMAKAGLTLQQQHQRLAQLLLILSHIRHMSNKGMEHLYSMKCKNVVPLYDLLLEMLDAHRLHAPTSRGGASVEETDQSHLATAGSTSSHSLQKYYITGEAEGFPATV

[2] = cited from earlier work
[3] = target: T1, estrogen receptor α (ERα); experiment: Binding to estrogen receptor α; settings: FIG. 15

Row | Molecule | ER protein expression ([1]; FIG. 14, cell line not stated) | binding to estrogen receptor α (ERα) [3] | IC50 (MCF-7; Homo sapiens, MCF7) | IC50 (MCF-7/TamR; Homo sapiens, MCF7) | IC50 (T47D/PKCα; Homo sapiens) | IC50 (BT474; Homo sapiens, BT-474) | also measured
1 | 4-Hydroxytamoxifen [reference compound] |  |  |  |  |  |  | IC50 (T47D/PKCα): 540 nM; IC50 (BT474): 1430 nM; IC50 (MCF-7): 3.3 nM; IC50 (MCF-7/TamR): 21100 nM
2 | CCC(=C(c1ccc(/C=C/C(=O)O)cc1)c1ccc(B(O)O)cc1)c1ccccc1 [SERD 4] |  | high affinity | 1800 nM | 1200 nM |  |  | ER protein expression ([1]; MCF-7 cells, FIG. 13): dramatically downregulated
3 | CC/C(=C(\c1ccc(/C=C/C(=O)O)cc1)c1ccc(B2OC(C)(C)C(C)(C)O2)cc1)c1ccccc1 [SERD 6] |  |  | 7730 nM | 4530 nM | 6540 nM | 80500 nM | 

More lines, main results first:

Row | ER protein expression ([1]; FIG. 14, cell line not stated) | binding to estrogen receptor α (ERα) [3] | Molecule | IC50 (MCF-7; Homo sapiens, MCF7) | IC50 (MCF-7/TamR; Homo sapiens, MCF7) | IC50 (T47D/PKCα; Homo sapiens) | IC50 (BT474; Homo sapiens, BT-474) | also measured
4 | dramatically downregulated |  | C[C@]12CC[C@@H]3c4ccc(O)cc4C[C@@H](CCCCCCCCC[S+]([O-])CCCC(F)(F)C(F)(F)F)[C@H]3[C@@H]1CC[C@@H]2O (some centres unmarked) [Fulvestrant] |  |  |  |  | peak blood concentration ([2]; higher dose of 500 mg, FINDER1 and FINDER2 clinical trials): < 25 ng/mL; time to reach steady state concentration in patient plasma ([2]; higher dose of 500 mg): 1 month; bioavailability if administered orally ([2]; oral): very poor bioavailability; time to reach steady state serum concentration ([2]; standard intramuscular (i.m.) injection): 3-4 months
5 | dramatically downregulated | high affinity | C[C@]12CC[C@@H]3c4ccc(B(O)O)cc4C[C@@H](CCCCCCCCC[S+]([O-])CCCC(F)(F)C(F)(F)F)[C@H]3[C@@H]1CC[C@@H]2O (some centres unmarked) [SERD 9] | 3.2 nM | 44 nM | 370 nM | 390 nM | 
